The results in this text go back to patent US20110144079A1, “ANTIMICROBIAL SYSTEM” (priority 2008, published 2011).

In test [1] the test system is MRSA. Briefly: Broth microdilution MIC/MBC. As to conditions: for MIC: 24 h at 37° C. The class given is cell-based, methicillin-resistant S. aureus. The protocol: (§1) Broth microdilution tests were performed according to NCCLS guidelines. Serial two-fold dilutions of each imidazolium salt (from an original working solution which had been 0.22 μm sterile filtered) in Mueller-Hinton Broth (MHB) (100 μl) were prepared in 96-well micro-titre plates over the range 0.0000625-1% w/v. The inoculum to be tested was prepared by adjusting the turbidity of an actively overnight growing broth culture in MHB to an optical density at 550 nm equivalent to 1×10^8 CFU/ml. The suspension was further diluted to provide a final inoculum density of 2×10^5 CFU/ml in MHB as verified by total viable count. The inoculum to be tested (100 μl, 2×10^5 CFU ml^−1) was added to each well of the microdilution trays which were incubated aerobically for 24 h at 37° C. Positive and negative growth controls were included in every assay (6 replicates). After determining the MICs, minimum bactericidal concentrations (MBCs) were determined by spreading 20 μl of suspension from wells showing no growth onto MHA plates, which were then incubated for 24 h and examined for 99.9% killing.

In test [2] the test system is B. cenocepacia J2315. In words: Broth microdilution MIC/MBC. It counts as cell-based. The gist of the method:
(§2)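 NCCLS broth microdilution; MHB; salts 0.0000625–1% w/v, 2-fold; final inoculum 2×10^5 CFU/ml; 24 h, 37 °C, aerobic. MBC = 99.9% kill on MHA subculture of no-growth wells, 24 h.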

For test [3], the system named is S. epidermidis ATCC 35984. In words: Broth microdilution MIC/MBC. The class given is cell-based. As to conditions: for MIC: S. epidermidis ATCC 35984, 24 h at 37° C. The gist of the method: as §2
A further test has as its system E. coli NCTC 8196. Briefly: Broth microdilution MIC/MBC. It counts as cell-based. As to conditions: for MIC: E. coli NCTC 8196, 24 h at 37° C. The gist of the method: as §2
Test [4] concerns E-MRSA 15. In words: Broth microdilution MIC/MBC. It counts as cell-based. The gist of the method:
as §2

In test [5] the test system is C. tropicalis NCTC 7393. In words: Broth microdilution MIC/MBC. It counts as cell-based. An outline of the steps: as §2
Test [6] relates to P. mirabilis NCTC 12442. In words: Broth microdilution MIC/MBC. As to conditions: for MIC: P. mirabilis NCTC 12442, 24 h at 37° C. It counts as cell-based. An outline of the steps: as §2
Test [7] concerns K. aerogenes NCTC 7427. In words: Broth microdilution MIC/MBC. As to conditions: for MIC: K. aerogenes NCTC 7427, 24 h at 37° C. It counts as cell-based. The gist of the method: as §2
Test [8] relates to S. epidermidis ATCC 12228. In words: Broth microdilution MIC/MBC. It counts as cell-based. As to conditions: for MIC: S. epidermidis ATCC 12228, 24 h at 37° C. An outline of the steps:
as §2

In test [9] the test system is P. aeruginosa PA01. In words: Broth microdilution MIC/MBC. It counts as cell-based. The settings on record: for MIC: Pseudomonas aeruginosa, PA01, 24 h, P. aeruginosa PA01, 24 h at 37° C., read-out: MIC. The gist of the method:
as §2

Test [10] relates to S. aureus ATCC 29213. In words: Broth microdilution MIC/MBC. The class given is cell-based. As to conditions: for MIC: S. aureus ATCC 29213, 24 h at 37° C. The gist of the method: as §2
Test [11] relates to B. cenocepacia J2315. Briefly: Biofilm assay (Calgary Biofilm Device), MBEC. The class given is cell-based. The settings on record: B. cenocepacia J2315 24 h biofilm, 24 h challenge. The protocol:
(§3) Biofilms of each test organism were grown in the Calgary Biofilm Device (commercially available as the MBEC Assay™ for Physiology & Genetics, Innovotech Inc., Edmonton, Alberta, Canada). The device, a micro-titre plated based assay, consists of two parts; a microtitre plate containing the inoculated test medium and a polystyrene lid with 96 identical pegs on which the microbial biofilm forms under gyrorotary incubation. The biofilm assay was conducted according to the MBEC™ assay protocol as supplied by the manufacturer, with slight modifications. Inocula of each test organism were prepared in MHB as described above and adjusted to provide a final inoculum density of ˜10^7 CFU ml^−1 (as confirmed by viable count). 150 μl of the inoculated media was transferred to each well of the 96-well microtitre plate and the assay plate lid, bearing 96 pegs was placed into the microtitre plate. The MBEC assay plates were placed in a gyrorotary incubator (37° C., 95% relative humidity) for 24 h to permit growth and comparison of 24 h biofilms of each test strain. Positive and negative growth controls were included in each plate (6 replicates). Initial and 24 h planktonic viable counts were measured, as were 24 h biofilm counts, expressed as CFU peg^−1, according to manufacturers instructions. After 24 h, the peg lid of the MBEC assay plate was gently rinsed three times. After rinsing, the peg lid of the MBEC assay was transferred to a ‘challenge’ plate. Serial dilutions of each imidazolium salt were prepared in 200 μl of MHB containing various concentrations of IL in each well. Positive growth control and sterility control were included in each assay plate. […] Biofilms were dislodged into recovery media by sonication for 5 minutes and the peg lid discarded. The recovery plate is incubated overnight and visually checked after 24 h for turbidity. In addition, optical density measurements for each plate were recorded at 550 nm. Clear wells were taken as evidence of biofilm eradication and the MBEC value was assigned as the lowest concentration at which no growth was observed after 24 h incubation. Plates were incubated for a further 24 h to confirm biofilm eradication concentrations.

For test [12], the system named is E. coli PIII. In words: Biofilm assay (Calgary Biofilm Device), MBEC. It counts as cell-based. As to conditions: E. coli PIII 24 h biofilm, 24 h challenge. The protocol: as §3
Test [13] deals with S. epidermidis ATCC 35984. In words: Biofilm assay (Calgary Biofilm Device), MBEC. The class given is cell-based. The settings on record: for MBEC: S. epidermidis ATCC 35984 24 h biofilm, 24 h challenge. The protocol: as §3
In test [14] the test system is E-MRSA 15. Briefly: Biofilm assay (Calgary Biofilm Device), MBEC. It counts as cell-based. As to conditions: E-MRSA 15 24 h biofilm, 24 h challenge. The protocol:
as §3

Test [15] concerns C. tropicalis NCTC 7393. Briefly: Biofilm assay (Calgary Biofilm Device), MBEC. It counts as cell-based. The settings on record: C. tropicalis NCTC 7393 24 h biofilm, 24 h challenge. The protocol:
as §3

For test [16], the system named is P. mirabilis NCTC 12442. Briefly: Biofilm assay (Calgary Biofilm Device), MBEC. It counts as cell-based. As to conditions: P. mirabilis NCTC 12442 24 h biofilm, 24 h challenge. The protocol: as §3
The subject of test [17] is K. aerogenes NCTC 7427. Briefly: Biofilm assay (Calgary Biofilm Device), MBEC. It counts as cell-based. As to conditions: K. aerogenes NCTC 7427 24 h biofilm, 24 h challenge. The protocol:
as §3

Test [18] has as its system P. aeruginosa PA01. In words: Biofilm assay (Calgary Biofilm Device), MBEC. The class given is cell-based. The settings on record: P. aeruginosa PA01 24 h biofilm, 24 h challenge. The protocol: as §3
For test [19], the system named is S. aureus ATCC 29213. Briefly: Biofilm assay (Calgary Biofilm Device), MBEC. It counts as cell-based. The settings on record: S. aureus ATCC 29213 24 h biofilm, 24 h challenge. The protocol: as §3
The test system of test [20] is MRSA. Briefly: Biofilm assay (Calgary Biofilm Device), MBEC. The class given is cell-based, methicillin-resistant S. aureus. The protocol:
as §3

Test [21] relates to E. coli PIII. In words: Broth microdilution MIC. The class given is cell-based. The protocol: as §1
The test system of test [22] is MRSA. In words: Zone of inhibition on MRSA-seeded agar culture plates. The class given is cell-based, methicillin-resistant S. aureus. As to conditions: 40 μL of ionic liquid applied to MRSA-seeded agar culture plates. From the text: As used herein, CyMIMCI, refers to 1-alkyl-3-methyl-imidazolium chloride ionic liquids, wherein the alkyl group is a straight chain alkyl group having y carbon atoms.

Test [23] has as its system B. cereus. In words: Broth microdilution MIC/MBC. The settings on record: Bacillus cereus, 24 h at 37° C. The class given is cell-based. The gist of the method:
as §2

Test [24] deals with S. epidermidis ATCC 12228. Briefly: Biofilm assay (Calgary Biofilm Device), MBEC. The class given is cell-based. The protocol: as §3
Test [25] has as its system B. cereus. In words: Biofilm assay (Calgary Biofilm Device), MBEC. The class given is cell-based. The settings on record: B. cereus 24 h biofilm, 24 h challenge. The protocol: as §3
[26] abbreviates: Staphylococcus epidermidis, ATCC12228.

Regarding `CCCCCCCCn1cc[n+](C)c1.[Cl-]` [C8MIMCl], the MBC in the test on MRSA [1] (99.9% killing) was over 1444 µM; in the test with B. cenocepacia J2315 [2] (B. cenocepacia J2315, 99.9% killing), over 1444 µM; in test [3] (S. epidermidis ATCC 35984, 99.9% killing) it was 1444 µM; with E. coli NCTC 8196 (E. coli NCTC 8196, 99.9% killing) it was 1444 µM; in the test on E-MRSA 15 [4] (E-MRSA 15, 99.9% killing), over 1444 µM; with C. tropicalis NCTC 7393 [5] (C. tropicalis NCTC 7393, 99.9% killing) it was over 1444 µM. Also, the MBC is listed as over 1444 µM in the test with P. mirabilis NCTC 12442 [6] (P. mirabilis NCTC 12442, 99.9% killing); over 1444 µM in the test on K. aerogenes NCTC 7427 [7] (K. aerogenes NCTC 7427, 99.9% killing); 1444 µM in [8] (S. epidermidis ATCC 12228, 99.9% killing); over 1444 µM with P. aeruginosa PA01 [9] (P. aeruginosa PA01, 99.9% killing); over 1444 µM against S. aureus ATCC 29213 [10] (S. aureus ATCC 29213, 99.9% killing). For the same compound, the MIC with MRSA [1] was 1444 µM; against B. cenocepacia J2315 [2] (B. cenocepacia J2315, 24 h at 37° C.), over 1444 µM; in test [3], 722 µM; against E. coli NCTC 8196 it was 722 µM; in the test with E-MRSA 15 [4] (E-MRSA 15, 24 h at 37° C.), 722 µM; against C. tropicalis NCTC 7393 [5] (C. tropicalis NCTC 7393, 24 h at 37° C.) it was 1444 µM. The minimum inhibitory concentration (MIC) in the test with P. mirabilis NCTC 12442 [6] was determined as 1444 µM; in the test with K. aerogenes NCTC 7427 [7], 1444 µM; in test [8], 361 µM; in the test with S. aureus ATCC 29213 [10], 722 µM; against E. coli PIII [21], 722 µM. In addition, the MBEC was 43331 µM with B. cenocepacia J2315 [11]; 21666 µM in the test on E. coli PIII [12]; 10833 µM in test [13]; 2708 µM in the test with E-MRSA 15 [14]; over 43331 µM with C. tropicalis NCTC 7393 [15]; 43331 µM in the test with P. mirabilis NCTC 12442 [16]. The MBEC in the test on K. aerogenes NCTC 7427 [17] worked out at 43331 µM; in the test on P. aeruginosa PA01 [18] it was 21666 µM; in the test with S. aureus ATCC 29213 [19] it was 2708 µM; in the test with MRSA [20] (MRSA 24 h biofilm, 24 h challenge), 21666 µM. Also, the figures for the “percent weight to volume of ionic liquid that corresponds to the MBEC value” (in [13] (S. epidermidis ATCC 35984 biofilm); in the test with MRSA [20] (MRSA biofilm)) were “(0.25) % w/v” and “(0.5) % w/v”, respectively. Also, in the test on MRSA [22], the “Zone Of Inhibition Radius” value is 12 mm.
For the compound `CCCCCCCCCCCCCC[n+]1cccc2cc(C)ccc21.[Br-]` [IL3, N-tetradecyl-6-methylquinolinium bromide], the MIC worked out at 23.2 µM against MRSA [1] (Staphylococcus aureus); 2.9 µM against B. cereus [23]; 11.6 µM against E. coli NCTC 8196 (Escherichia coli, NCTC8196); 92.9 µM against P. mirabilis NCTC 12442 [6] (Proteus mirabilis, NCTC12442); 8.2 µM in [8] (setting [26]); 23.2 µM in the test with P. aeruginosa PA01 [9]. This compound also returned an MBEC in test [24] of 8.2 µM.
With `CCCCCCCCCCCCCC[n+]1ccc2ccccc2c1.[Br-]` [IL4, N-tetradecylisoquinolinium bromide], the MIC was found to be 24.1 µM with MRSA [1] (Staphylococcus aureus); 3 µM against B. cereus [23]; 7.9 µM in [3] (Staphylococcus epidermidis, ATCC35984, 24 h); 24.1 µM in the test on E. coli NCTC 8196 (Escherichia coli, NCTC8196); 193 µM against P. mirabilis NCTC 12442 [6] (Proteus mirabilis, NCTC12442); 7.9 µM with K. aerogenes NCTC 7427 [7] (Klebsiella aerogenes, NCTC7427). In addition, the MIC was determined as 7.9 µM in test [8] (setting [26]); 48.2 µM in the test on P. aeruginosa PA01 [9]; 7.9 µM with S. aureus ATCC 29213 [10] (Staphylococcus aureus, ATCC29213). Besides, the MBEC with B. cereus [25] was determined as 7.9 µM; in test [13], 31.5 µM; with K. aerogenes NCTC 7427 [17] it was 63.4 µM; in [24], 31.7 µM; with S. aureus ATCC 29213 [19] it was 126.9 µM.
